Assays:
Test in all cases: relative viability (nuclei count vs DMSO), 5 days (fraction); higher = more cells survive
[1] = compound: Cc1cnc(Nc2ccc(OCCN3CCCC3)cc2)nc1Nc1cccc(S(=O)(=O)NC(C)(C)C)c1 [Fedratinib] + CC(=O)Nc1cccc(-n2c(=O)n(C3CC3)c(=O)c3c(Nc4ccc(I)cc4F)n(C)c(=O)c(C)c32)c1 [Trametinib] (partner 0.02 µM)
Summary of the method: (§1)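 The day after seeding in 1536-well plates, lung cancer cell lines were treated by pin tool with a single drug, or with a fixed anchor-drug dose together with five library-drug doses (not always all listed) in √10 steps. After 5 days, a combined fix-and-stain solution (final 0.05% Triton X-100, 1% formaldehyde, 1 ug/ml Hoechst) was added. Nuclei counted on 4× images gave relative viability as treated counts over vehicle counts, reported as the median of duplicate plates.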

[2] = compound: COC1=CC=C(C=C1)COC2=C(C=C(C=C2)CC3=CN=C(N=C3N)N)OC [GW-2580] + Cc1cc(Nc2cc(N3CCN(C)CC3)nc(Sc3ccc(NC(=O)C4CC4)cc3)n2)n[nH]1 [Tozasertib] (partner 0.1 µM)
Summary of the method: as §1

[3] = compound: COC1=CC=C(C=C1)COC2=C(C=C(C=C2)CC3=CN=C(N=C3N)N)OC [GW-2580] + Nc1nc2[nH]cc(CCc3ccc(C(=O)N[C@@H](CCC(=O)O)C(=O)O)cc3)c2c(=O)[nH]1 [Pemetrexed] (partner 0.2 µM)
Summary of the method: as §1

[4] = compound: Cc1cnc(Nc2ccc(OCCN3CCCC3)cc2)nc1Nc1cccc(S(=O)(=O)NC(C)(C)C)c1 [Fedratinib] + NC(=O)Nc1cc(-c2cccc(F)c2)sc1C(=O)N[C@H]1CCCNC1 [AZD7762] (partner 0.2 µM)
Summary of the method: as §1

[5] = compound: COC1=CC=C(C=C1)COC2=C(C=C(C=C2)CC3=CN=C(N=C3N)N)OC [GW-2580] + Nc1ncn([C@H]2C[C@H](O)[C@@H](CO)O2)c(=O)n1 [Decitabine] (partner 2 µM)
Summary of the method: as §1

| Cell Line | relative viability ([1]; first compound 0.1 µM) | relative viability ([1]; first compound 0.3162 µM) | relative viability ([1]; first compound 1 µM) | relative viability ([2]; first compound 0.08 µM) | relative viability ([2]; first compound 0.8 µM) | relative viability ([2]; first compound 2.53 µM) | relative viability ([2]; first compound 8 µM) | relative viability ([3]; first compound 0.08 µM) | relative viability ([3]; first compound 0.8 µM) | relative viability ([3]; first compound 2.53 µM) | relative viability ([3]; first compound 8 µM) | relative viability ([4]; first compound 0.1 µM) | relative viability ([4]; first compound 0.3162 µM) | relative viability ([4]; first compound 1 µM) | relative viability ([5]; first compound 0.08 µM) | relative viability ([5]; first compound 0.8 µM) | relative viability ([5]; first compound 2.53 µM) | relative viability ([5]; first compound 8 µM) |
| --- | --- | --- | --- | --- | --- | --- | --- | --- | --- | --- | --- | --- | --- | --- | --- | --- | --- | --- |
| NCI-H1734 | 0.605 | 0.583 | 0.636 | 0.25 | 0.267 | 0.277 | 0.252 | 0.404 | 0.409 | 0.425 | 0.408 | 0.709 | 0.512 | 0.515 | 0.522 | 0.457 | 0.539 | 0.55 |
| NCI-H1755 | 0.822 | 0.696 | 0.73 | 0.545 | 0.576 | 0.523 | 0.538 | 0.677 | 0.474 | 0.429 | 0.43 | 0.422 | 0.47 | 0.43 | 0.695 | 0.714 | 0.757 | 0.654 |
| NCI-H1793 | 0.493 | 0.399 | 0.416 | 0.379 | 0.3 | 0.281 | 0.307 | 0.982 | 1.08 | 0.649 | 0.844 | 0.324 | 0.402 | 0.326 | 0.493 | 0.614 | 0.473 | 0.503 |
| NCI-H1915 | 0.307 | 0.28 | 0.275 | 0.469 | 0.44 | 0.489 | 0.387 | 0.519 | 0.53 | 0.509 | 0.486 | 0.754 | 0.66 | 0.67 | 0.248 | 0.272 | 0.575 | 0.251 |
| NCI-H1944 | 0.448 | 0.422 | 0.42 | 0.267 | 0.256 | 0.253 | 0.205 | 0.621 | 0.638 | 0.556 | 0.512 | 0.475 | 0.594 | 0.458 | 0.414 | 0.421 | 0.45 | 0.395 |
| NCI-H1975 | 0.344 | 0.234 | 0.304 | 0.854 | 1.06 | 0.614 | 0.654 | 0.311 | 0.309 | 0.323 | 0.309 | 0.562 | 0.676 | 0.566 | 0.417 | 0.455 | 0.376 | 0.4 |
| NCI-H1993 | 0.547 | 0.419 | 0.421 | 0.618 | 0.526 | 0.574 | 0.549 | 0.601 | 0.703 | 0.54 | 0.576 | 0.816 | 0.694 | 0.688 | 0.652 | 0.665 | 0.514 | 0.63 |
| NCI-H2085 | 0.598 | 0.512 | 0.458 | 0.698 | 0.8 | 0.667 | 0.748 | 0.963 | 1.01 | 0.885 | 0.838 | 0.952 | 0.925 | 0.928 | 0.577 | 0.542 | 0.541 | 0.589 |
| NCI-H2087 | 0.203 | 0.177 | 0.213 | 0.242 | 0.263 | 0.249 | 0.212 | 0.68 | 0.713 | 0.7 | 0.625 | 1.39 | 1.37 | 1.42 | 0.276 | 0.267 | 0.237 | 0.276 |
| NCI-H2126 | 0.493 | 0.582 | 0.541 | 0.889 | 0.933 | 0.822 | 0.794 | 0.664 | 0.709 | 0.63 | 0.612 | 1.06 | 1.01 | 1.01 | 0.582 | 0.614 | 0.574 | 0.569 |
| NCI-H2170 | 0.931 | 0.887 | 0.847 | 1.04 | 0.816 | 0.777 | 0.677 | 0.26 | 0.261 | 0.264 | 0.251 | 0.77 | 0.821 | 0.644 | 0.521 | 0.464 | 0.47 | 0.467 |
| NCI-H2342 | 0.858 | 1.1 | 1.01 | 0.557 | 0.498 | 0.516 | 0.418 | 0.705 | 0.828 | 0.682 | 0.733 | 0.443 | 0.528 | 0.56 | 0.673 | 0.654 | 0.692 | 0.735 |
| NCI-H2347 | 0.252 | 0.27 | 0.27 | 0.538 | 0.745 | 0.508 | 0.401 | 0.468 | 0.473 | 0.464 | 0.446 | 0.757 | 0.645 | 0.857 | 0.676 | 0.662 | 0.582 | 0.587 |
| NCI-H2405 | 0.582 | 0.584 | 0.57 | 0.8 | 0.726 | 0.656 | 0.524 | 1.04 | 1.2 | 1.02 | 0.799 | 0.7 | 0.764 | 0.528 | 0.739 | 0.766 | 0.746 | 0.729 |
| NCI-H3122 | 0.242 | 0.205 | 0.193 | 0.549 | 0.421 | 0.468 | 0.362 | 0.212 | 0.211 | 0.203 | 0.207 | 1.07 | 1.02 | 0.912 | 0.377 | 0.411 | 0.437 | 0.54 |
| PC-3 [JPC-3] | 0.561 | 0.757 | 0.655 | 0.89 | 0.916 | 0.891 | 0.854 | 0.908 | 1.39 | 0.861 | 0.658 | 0.775 | 0.976 | 0.668 | 0.8 | 0.855 | 0.829 | 0.783 |
| PC-14 | 0.692 | 0.871 | 0.554 | 0.665 | 0.68 | 0.514 | 0.468 | 0.14 | 0.136 | 0.137 | 0.127 | 0.275 | 0.349 | 0.215 | 0.191 | 0.198 | 0.236 | 0.221 |
